Entries after “also recorded” stand apart in the source; their conditions may differ.
What was measured:
Type in all cases: biochemical, Trametes versicolor
[1] = system: T. versicolor laccase; test: Biocompatibility screening of AILs with laccase (ABTS oxidation assay); conditions: for inhibitory effect on laccase (comparison among the 3 ILs): varied concentration of laccase and ILs
Description: All solutions used were adjusted to pH 5.0 prior to beginning experiments. Appropriate concentrations of laccase and AILs were mixed and added to clear, flat bottom 96-well Costar Assay Plates (Corning Inc.; Kenneburk, Me.). ABTS was added for a final concentration of 2 mM. Sodium citrate buffer (1.0 M, pH 5.0) was added for a final well volume of 250 μL. ABTS oxidation was measured for 5 minutes at 40° C. Absorbance readings were taken every 30 seconds at a wavelength of 420 nm using a SpectraMax M2 plate reader from Molecular Devices (Sunnyvale, Calif., USA). Plates were shaken for 5 seconds prior to initial reading and 3 seconds before each reading to ensure homogeneous well solutions.

[2] = system: T. versicolor laccase; test: Lignin model compound (GGE) depolymerization by laccase in AILs, HPLC; conditions: 2% [C2C1Im][OAc] or 1% [Ch][Lys], 40° C., O2 30 psi, 2 hours
Description: Appropriate concentrations of AIL, ABTS, laccase, and GGE were mixed. Sodium citrate buffer (1.0 M, pH 5.0) was added for a final reaction volume of 1 mL. Reactions were carried out in a batch reactor at 40° C. Pure O2 was flowed through the reactor for 1 minute. The release valve of the reactor was closed, pure O2 was flowed in at a pressure of 30 psi, and the reaction was allowed to proceed for an additional 2 hours. Product profiles were analyzed by HPLC using the method as described previously (Deng, Zhang et al. 2015). Water and acetonitrile (8:2 v/v) was used as a mobile phase. Mobile phase was flowed at 0.5 mL min^−1 for 30 minutes through an Ultimate 3000 HPLC system (Dionex Corporation, Sunnyvale, Calif., USA) equipped with ultraviolet (UV) detector. Separation was achieved through use of a Zorbax Eclipse XDB-C18 column (5 μm particle size, 150×4.6 mm i.d., Agilent Technologies, Santa Clara, Calif., USA) at 25° C. Elution profile of column was measured by UV absorbance at 280 nm.

[3] = system: T. versicolor laccase; test: AIL inhibition: Michaelis-Menten and Lineweaver-Burke curves of laccase; conditions: from changes in Vmax and Km with AIL concentration; ABTS substrate, 0.30 μg laccase
Description: Michaelis-Menten curves were generated by mixing appropriate concentrations of AILs and ABTS with 0.30 μg laccase in 96-well plates. Sodium citrate buffer (1.0 M, pH 5.0) was added for a final well volume of 250 μL. ABTS oxidation was measured using the same method as the initial screening. Laccase activity (V) was measured as moles of ABTS oxidized per minute per gram of laccase (mol ABTS·min^−1·g^−1 lac.) and Km was measured in μmol ABTS. Activity was fit to the Michaelis-Menten curve, shown in equation 1. [formula] These curves were linearized using the Lineweaver-Burke method, resulting in equation 2. [formula] Equation 2 was used to solve for Km and Vmax of laccase in known concentrations of AILs.

degradation of GGE by laccase in AIL ([2]; with mediator ABTS)	degradation of GGE by laccase in AIL ([2]; without ABTS, 10% [DEA][HSO4])	type of inhibition of laccase [3]	SMILES	loss of laccase activity ([1]; 2% IL, ABTS assay)	inhibitory effect on laccase (comparison among the 3 ILs) ([1]; ABTS assay, acetate)	loss of laccase activity ([1]; 2% AIL, ABTS oxidation, pH 5.0, 40° C.) [%]	inhibitory effect on laccase (comparison among the 3 ILs) ([1]; ABTS assay)	loss of laccase activity ([1]; 10% IL, ABTS assay)
able to break down GGE	not capable of breaking down GGE	mixed inhibition	CC(=O)[O-].CCn1cc[n+](C)c1 [[C2C1Im][OAc], 1-ethyl-3-methylimidazolium acetate]	significant loss of laccase activity	more inhibitory to laccase			
able to break down GGE	not capable of breaking down GGE	mixed inhibition	C[N+](C)(C)CCO.NCCCC[C@H](N)C(=O)[O-] [[Ch][Lys], cholinium lysinate]			> 50	more inhibitory	

SMILES	degradation of GGE by laccase in AIL ([2]; with mediator ABTS)	degradation of GGE by laccase in AIL ([2]; without ABTS, 10% [DEA][HSO4])	type of inhibition of laccase [3]	loss of laccase activity ([1]; 2% IL, ABTS assay)	inhibitory effect on laccase (comparison among the 3 ILs) ([1]; ABTS assay, acetate)	loss of laccase activity ([1]; 2% AIL, ABTS oxidation, pH 5.0, 40° C.) [%]	inhibitory effect on laccase (comparison among the 3 ILs) ([1]; ABTS assay)	loss of laccase activity ([1]; 10% IL, ABTS assay)
CCNCC.O=S(=O)(O)O [[DEA][HSO4], diethyl ammonium hydrogen sulfate]		capable of degrading GGE	noncompetitive inhibition				most biocompatible; also recorded: did not impede the ability of laccase to oxidize ABTS	losing little of its activity; also recorded: negligible to modest loss of laccase activity

— patent US10723859B2, “Lignin valorization in ionic liquids and deep eutectic solvent via catalysis and biocatalysis” (University of Kentucky Research Foundation, priority 2017, dated 2020)
